Laboratory results from ChEMBL document CHEMBL4422611, “A review on diverse heterocyclic compounds as the privileged scaffolds in antimalarial drug discovery” (Eur J Med Chem, 2018).
Converted amounts (≈) assume the structure as drawn.

What was measured:
[1] = tested on: Plasmodium falciparum; experiment: Antimalarial activity against synchronized ring stage of Plasmodium falciparum infected in human RBC measured after 48 hrs; type: functional, organism-based
[2] = tested on: Plasmodium falciparum; experiment: Antimalarial activity against synchronized ring stage of chloroquine-resistant Plasmodium falciparum RKL2 infected in human RBC assessed as parasite death at 5 ug/ml after 40 hrs by Giemsa staining based microscopic analysis relative to control; type: functional
[3] = tested on: Plasmodium falciparum; experiment: Antimalarial activity against synchronized ring stage of chloroquine-sensitive Plasmodium falciparum 3D7 infected in human RBC assessed as parasite death at 5 ug/ml after 40 hrs by Giemsa staining based microscopic analysis relative to control; type: functional
[4] = tested on: Plasmodium falciparum; experiment: Antimalarial activity against Plasmodium falciparum; type: functional, organism-based
[5] = tested on: Plasmodium falciparum; experiment: Antimalarial activity against Plasmodium falciparum infected in human RBC after 72 hrs by Giemsa staining based assay; type: functional, organism-based

| SMILES | IC50 [1] | other results |
| --- | --- | --- |
| CCOC(=O)C1=C(N)OC2=C(C(=O)CC(C)(C)C2)C1c1c(C)nn(-c2ccccc2)c1-n1ccnc1 (stereo not drawn) | 0.067 µg/mL | – |
| Cc1nn(-c2ccccc2)c(-n2ccnc2)c1C1CC(c2ccc(O)cc2)=NN1 (stereo not drawn) | 0.036 µg/mL | – |
| Cc1nn(-c2ccccc2)c(-n2ccnc2)c1C1C(C#N)=C(N)Oc2c1ccc1ccccc21 (stereo not drawn) | 0.54 µg/mL | – |
| Clc1ccc2c(NCCN3CCN(c4nc(N5CCOCC5)nc(N5CCOCC5)n4)CC3)ccnc2c1 | – | Activity [2]: 8%; Activity [3]: 6% |
| Cc1nn(-c2ccccc2)c(Oc2ccccc2F)c1-c1nnc(-c2ccc(Br)cc2)o1 | 506 nM | – |
| CCOC(=O)C1=C(N)Oc2c(c(=O)n(C)c(=O)n2C)C1c1c(C)nn(-c2ccccc2)c1-n1ccnc1 (stereo not drawn) | 0.049 µg/mL | – |
| Cc1nn(-c2ccccc2)c2c1C(c1c(C)nn(-c3ccccc3)c1-n1ccnc1)C(C#N)=C(N)O2 (stereo not drawn) | 0.034 µg/mL | – |
| Cc1nn(-c2ccccc2)c(-n2ccnc2)c1C1CC(c2ccc(Br)cc2)=NN1 (stereo not drawn) | 0.012 µg/mL | – |
| Cc1nn(-c2ccccc2)c(-n2ccnc2)c1C1C(C#N)=C(N)Oc2c1c(=O)oc1ccccc21 (stereo not drawn) | 0.42 µg/mL | – |
| Cc1n[nH]c2c1C(c1c(C)nn(-c3ccccc3)c1-n1ccnc1)C(C#N)=C(N)O2 (stereo not drawn) | 0.57 µg/mL | – |
| CCOC(=O)C1=C(N)Oc2c(ccc(O)c2C)C1c1c(C)nn(-c2ccccc2)c1-n1ccnc1 (stereo not drawn) | 0.061 µg/mL | – |
| COc1ccc(NN2C(N)=C(C#N)C(c3c(C)nn(-c4ccccc4)c3Oc3cccc(C(F)(F)F)c3)C3=C2CC(C)(C)CC3=O)cc1 (stereo not drawn) | – | IC50 [4]: 0.042 µg/mL (≈ 0.0642 µM) |
| Cc1nn(-c2ccccc2)c(-n2ccnc2)c1C1C(C#N)=C(N)Oc2ccc3ccccc3c21 (stereo not drawn) | 0.32 µg/mL | – |
| Cc1nn(-c2ccccc2)c2c1C(c1cccs1)c1c(n(C)c(=O)n(C)c1=O)N2 (stereo not drawn) | 0.033 µg/mL | – |
| Cc1nn(-c2ccccc2)c(-n2ccnc2)c1C1CC(c2ccc(Br)cc2)=NO1 (stereo not drawn) | 0.036 µg/mL | – |
| COc1ccc2nc(Cl)c(/C=C3\C=C(c4ccc(C)cc4C)OC3=O)cc2c1 | – | IC50 [5]: 0.5 µg/mL (≈ 1.28 µM) |
| Cc1n[nH]c2c1C(C1CCCCC1)c1c(n(C)c(=O)n(C)c1=O)N2 (stereo not drawn) | 0.033 µg/mL | – |
